Test [1] deals with human lung cancer cell line A549. The experiment in a line: In vitro anticancer activity MTT assay, A549. The test is classed as cell-based. Particulars: 48 h, A549 cells. On the procedure:
(§1) Using a wavelength-tunable microplate reader absorbance value (A595) was measured at 595 nm. Inhibitory ratio was calculated with the following formula: […]
(§2) wherein, IC50 values were calculated using the GraphPad Prism 5 software.
Background: Formazan colour is commonly taken as a measure of viable cells.

Test [2] deals with breast cancer cell line MCF-7. The experiment in a line: In vitro anticancer activity MTT assay, MCF-7. Type of test: cell-based, human. Particulars: 48 h, MCF-7 cells. On the procedure:
as §1, §2

Test [3] relates to colorectal cancer cell line HCT-116. The experiment in a line: In vitro anticancer activity MTT assay, HCT116. The test is classed as cell-based, human. Particulars: 48 h, HCT116 cells. On the procedure:
as §1, §2

The values below come from US9738673B1, “Ferrocene derivative, preparation method and use thereof” (XIAMEN INSTITUTE OF RARE EARTH MATERIALS, priority 2016, dated 2017).

By IC50 is commonly meant the concentration at which inhibition is half-maximal. Read a low IC50 as higher potency.

In the case of `O=C(OCc1cc(-c2ccccc2)no1)[c-]1cccc1.O=C(OCc1cc(-c2ccccc2)no1)[c-]1cccc1.[Fe+2]` [YJP-1], the IC50 in test [1] came to 252 µM; in test [2] it was 990 µM.
With `Cc1ccc(-c2cc(COC(=O)[c-]3cccc3)on2)cc1.Cc1ccc(-c2cc(COC(=O)[c-]3cccc3)on2)cc1.[Fe+2]` [YJP-2], the values for the IC50 in test [1], in test [3] and in test [2] were 198 µM, 220 µM and 136 µM, respectively.
As for `CCc1ccc(-c2cc(COC(=O)[c-]3cccc3)on2)cc1.CCc1ccc(-c2cc(COC(=O)[c-]3cccc3)on2)cc1.[Fe+2]` [YJP-3], the IC50 in test [2] came to 86.8 µM. This counts as double-digit micromolar.
In the case of `CC(C)(C)c1ccc(-c2cc(COC(=O)[c-]3cccc3)on2)cc1.CC(C)(C)c1ccc(-c2cc(COC(=O)[c-]3cccc3)on2)cc1.[Fe+2]` [YJP-4], the figures for the IC50 in test [1], in test [3] and in test [2] were 220 µM, 2180 µM and 150 µM, respectively.
Consider `Cc1cc(C)c(-c2cc(COC(=O)[c-]3cccc3)on2)c(C)c1.Cc1cc(C)c(-c2cc(COC(=O)[c-]3cccc3)on2)c(C)c1.[Fe+2]` [YJP-5], for which the IC50 is 189 µM in test [1] and 142 µM in test [2].
In test [2], `COc1ccc(-c2cc(COC(=O)[c-]3cccc3)on2)cc1.COc1ccc(-c2cc(COC(=O)[c-]3cccc3)on2)cc1.[Fe+2]` [YJP-6] yielded an IC50 of 182 µM.
In the case of `COc1ccccc1-c1cc(COC(=O)[c-]2cccc2)on1.COc1ccccc1-c1cc(COC(=O)[c-]2cccc2)on1.[Fe+2]` [YJP-7], the IC50 was determined as 868 µM in test [1] and 157 µM in test [2].
`COc1cccc(-c2cc(COC(=O)[c-]3cccc3)on2)c1.COc1cccc(-c2cc(COC(=O)[c-]3cccc3)on2)c1.[Fe+2]` [YJP-8]: the IC50 in test [1] is 142 µM; in test [3], 236 µM; in test [2], 138 µM.
In the case of `O=C(OCc1cc(-c2ccc(C(F)(F)F)cc2)no1)[c-]1cccc1.O=C(OCc1cc(-c2ccc(C(F)(F)F)cc2)no1)[c-]1cccc1.[Fe+2]` [YJP-9], the IC50 in test [2] worked out at 133 µM.
Turning to `O=C(OCc1cc(-c2ccc(F)cc2)no1)[c-]1cccc1.O=C(OCc1cc(-c2ccc(F)cc2)no1)[c-]1cccc1.[Fe+2]` [YJP-11], the 50% inhibitory concentration (IC50) in test [1] was 2860 µM; in test [2], 138 µM.
As to `O=C(OCc1cc(-c2ccccc2F)no1)[c-]1cccc1.O=C(OCc1cc(-c2ccccc2F)no1)[c-]1cccc1.[Fe+2]` [YJP-12], the values for the IC50 in test [1], in test [3] and in test [2] were 168 µM, 149 µM and 159 µM, respectively.
The like results for `O=C(OCc1cc(-c2ccc(Cl)cc2)no1)[c-]1cccc1.O=C(OCc1cc(-c2ccc(Cl)cc2)no1)[c-]1cccc1.[Fe+2]` [YJP-13] were, in that order, 690 µM, 486 µM and 169 µM.
Consider `O=C(OCc1cc(-c2ccccc2Cl)no1)[c-]1cccc1.O=C(OCc1cc(-c2ccccc2Cl)no1)[c-]1cccc1.[Fe+2]` [YJP-14], for which the values for the IC50 in test [1], in test [3] and in test [2] were 450 µM, 228 µM and 172 µM, respectively.
The like results for `O=C(OCc1cc(-c2ccc(Cl)cc2Cl)no1)[c-]1cccc1.O=C(OCc1cc(-c2ccc(Cl)cc2Cl)no1)[c-]1cccc1.[Fe+2]` [YJP-15] were, in that order, 222 µM, 234 µM and 190 µM.
The like results for `O=C(OCc1cc(-c2ccc(Br)cc2)no1)[c-]1cccc1.O=C(OCc1cc(-c2ccc(Br)cc2)no1)[c-]1cccc1.[Fe+2]` [YJP-16] were, in that order, 251 µM, 63.9 µM and 156 µM.
The like results for `O=C(OCc1cc(-c2ccc([N+](=O)[O-])cc2)no1)[c-]1cccc1.O=C(OCc1cc(-c2ccc([N+](=O)[O-])cc2)no1)[c-]1cccc1.[Fe+2]` [YJP-19] were, in that order, 530 µM, 157 µM and 178 µM.
